The results in this text go back to patent US20010044445A1, “AZOLE INHIBITORS OF CYTOKINE PRODUCTION” (priority 1999, published 2001).

SMILES strings stand for the structures.

The subject of series [1] is Human peripheral blood mononuclear cells. Description: Human Concanavalin-A Proliferation Assay (Con HU Assay). It is filed as cell-based. To be noted: Homo sapiens, PBMC, concanavalin-A stimulated human PBMC; for inhibition at 100 µM / inhibition at 10 µM / inhibition at 1 µM: 72 h, 3 days, read-out: % Inhibition of proliferation (at concentrations of 1,10, or 100 μm); for inhibition at 100 µM: concentration 100 μm (in parentheses in the cell); for IC50: tritiated thymidine; for inhibition at 10 µM: concentration 10 μm (in parentheses in the cell); for inhibition at 1 µM: concentration 1 μm (in parentheses in the cell). The procedure, abridged:
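Histopaque-isolated human PBMC (50,000/well) were pre-incubated 15 min with compounds, then stimulated with concanavalin-A at 2.5 μg/ml final for 3 days at 37 °C, 5% CO2. Proliferation measured by 6 h pulse with 0.5 μCi/well [3H]thymidine and beta counting.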

In turn, `O=C(Nc1ccc(-n2nc(C(F)(F)F)cc2C(F)(F)F)cc1)C1CCCCCC1` [Example 18, N-[4[3,5-bis(trifluoromethyl)-1H-pyrazol-1-yl]phenyl]cycloheptanecarboxamide] came in with a melting point of 174 to 175 °C. For the same compound, in series [1], the inhibition at 100 µM worked out at 100% and the IC50 turned out to be 374 nM.

In turn, `Cc1ccc([N+](=O)[O-])c(C(=O)Nc2ccc(-n3nc(C(F)(F)F)cc3C(F)(F)F)cc2)c1` [Example 237, N-[4-[3,5-bis(trifluoromethyl)-1H-pyrazol-1-yl]phenyl]-5-methyl-2-nitrobenzamide] yielded a melting point of 188 to 189 °C. Moreover, in series [1], the inhibition at 100 µM is 100% and the IC50 amounted to 368 nM.

On to `O=C(Nc1ccc(-n2nc(C(F)(F)F)cc2C(F)(F)F)cc1)c1ccncc1` [Example 116, N-[4-[3,5-bis(trifluoromethyl)-1H-pyrazol-1-yl]phenyl]-4-pyridinecarboxamide], for which the melting point was 156 to 157 °C. In series [1], the inhibition at 10 µM was determined as 100% and the IC50 worked out at 154 nM.

In turn, `O=C(Nc1ccc(-n2nc(C(F)(F)F)cc2C(F)(F)F)cc1)c1ccccc1I` [Example 110, N-[4-[3,5-bis(trifluoromethyl)-1H-pyrazol-1-yl]phenyl]-2-iodobenzamide] came in with a melting point of 180 to 182 °C. Besides, in series [1], the inhibition at 10 µM came out at 99% and half-maximal inhibition (IC50) was put at 314 nM.

For the compound `O=C(Nc1ccc(-n2nc(C(F)(F)F)cc2C(F)(F)F)cc1)Nc1ccc(Cl)cc1[N+](=O)[O-]` [Example 48, N-[4-[3,5-bis(trifluoromethyl)-1H-pyrazol-1-yl]phenyl]-N′-(4-chloro-2-nitrophenyl)urea], the melting point lay within 225 to 227 °C. In addition, in series [1], the inhibition at 1 µM is 85% and the IC50 worked out at 468 nM.

The compound `O=C(Nc1ccc(-n2nc(C(F)(F)F)cc2C(F)(F)F)cc1-n1nc(C(F)(F)F)cc1C(F)(F)F)c1ccc(F)cc1F` [Example 273, N-[2,4-bis[3,5-bis(trifluoromethyl)-1H-pyrazol-1-yl]phenyl]-2,4-difluorobenzamide] registered a melting point of 114 to 115 °C. In addition, the inhibition at 1 µM in series [1] was found to be 12%.

Consider `O=C(Nc1ccc(-n2nc(C(F)(F)F)cc2C(F)(F)F)cc1)c1cccnc1F` [Example 164, N-[4-[3,5-bis(trifluoromethyl)-1H-pyrazol-1-yl]phenyl]-2-fluoro-3-pyridinecarboxamide], for which the melting point fell in the range of 110 to 112 °C. For the same compound, in series [1], the inhibition at 10 µM is 99% and the concentration for half-maximal inhibition (IC50) turned out to be 39 nM.

`O=C(O)c1ccc(C(=O)Nc2ccc(-n3nc(C(F)(F)F)cc3C(F)(F)F)cc2)cc1` [Example 157, 4-[[[4-[3,5-bis(trifluoromethyl)-1H-pyrazol-1-yl]phenyl]amino]carbonyl]benzoic acid] displayed a melting point of 282 to 283 °C. In series [1], the inhibition at 10 µM is 42% and half-maximal inhibition (IC50) was put at 6760 nM.

Compound `COc1cc(C(=O)Nc2ccc(-n3nc(C(F)(F)F)cc3C(F)(F)F)cc2)cs1` [Example 259, N-[4-[3,5-bis(trifluoromethyl)-1H-pyrazol-1-yl]phenyl]-5-methoxy-3-thiophenecarboxamide] gave a melting point of 213 to 214 °C. Also, in series [1], the inhibition at 1 µM amounted to 5%.

In turn, `O=C(Nc1ccc(-n2nc(C(F)(F)F)cc2C(F)(F)F)cc1)c1cc(F)c(Cl)cc1F` [Example 225, N-[4-[3,5-bis(trifluoromethyl)-1H-pyrazol-1-yl]phenyl]-4-chloro-2,5-difluorobenzamide] yielded a melting point of 160 to 162 °C. For the same compound, in series [1], the inhibition at 10 µM worked out at 98% and the IC50 turned out to be 154 nM.

`O=C(Nc1ccc(-n2nc(C(F)(F)F)cc2C(F)(F)F)cc1)c1cccc(Cl)c1` [Example 130, N-[4-[3,5-bis(trifluoromethyl)-1H-pyrazol-1-yl]phenyl]-3-chlorobenzamide]: the melting point was 142 to 144 °C. Moreover, in series [1], the inhibition at 100 µM stood at 100% and the IC50 was determined as 336 nM.

In the case of `Cn1cc(C(=O)Nc2ccc(-n3nc(C(F)(F)F)cc3C(F)(F)F)cc2)cn1` [Example 265, N-[4-[3,5-bis(trifluoromethyl)-1H-pyrazol-1-yl]phenyl]-1-methyl-1H-pyrazole-4-carboxamide], the melting point was 211 to 212 °C. Further, in series [1], the inhibition at 10 µM amounted to 90% and the concentration for half-maximal inhibition (IC50) is 3810 nM.

Consider `Cc1noc(C)c1C(=O)Nc1ccc(-n2nc(C(F)(F)F)cc2C(F)(F)F)c(C(F)(F)F)c1` [Example 275, N-[4-[3,5-bis(trifluoromethyl)-1H-pyrazol-1-yl]-3-(trifluoromethyl)phenyl]-3,5-dimethyl-4-isoxazolecarboxamide], for which the melting point was in the range of 61 to 63 °C. The inhibition at 1 µM in series [1] is 8%.

Consider `N#Cc1ccccc1NC(=O)c1ccc(-n2nc(C(F)(F)F)cc2C(F)(F)F)cc1` [Example 188, 4-[3,5-Bis(trifluoromethyl)-1H-pyrazol-1-yl]-N-(2-cyanophenyl)benzamide], for which the melting point lay in the range of 203 to 205 °C. Moreover, in series [1], the inhibition at 10 µM was determined as 87% and the IC50 is 485 nM.

Consider `O=C(Nc1ccc(-n2nc(C(F)(F)F)cc2C(F)(F)F)c(C(F)(F)F)c1)c1ccc(Cl)cc1` [Example 271, N-[4-[3,5-bis(trifluoromethyl)-1H-pyrazol-1-yl]-3-(trifluoromethyl)phenyl]-4-chlorobenzamide], for which the melting point was in the range of 65 to 67 °C. For the same compound, the inhibition at 1 µM in series [1] was determined as 14%.

Regarding `O=C(Nc1ccc(-n2nc(C(F)(F)F)cc2C(F)(F)F)cc1)c1ccc(Cl)cc1F` [Example 296, N-(4-(3,5-bis(trifluoromethyl)-1H-pyrazol-1-yl)phenyl)-4-chloro-2-fluorobenzamide], the melting point lay in the range of 156 to 158 °C. The IC50 in series [1] was 44 nM.

As for `COc1ccc(C(=O)Nc2ccc(-n3nc(C(F)(F)F)cc3C(F)(F)F)cc2)cc1` [Example 71, N-[4-[3,5-bis(trifluoromethyl)-1H-pyrazol-1-yl]phenyl]-4-methoxybenzamide], the melting point was 205 to 207 °C. Moreover, in series [1], the inhibition at 10 µM was 87% and half-maximal inhibition (IC50) required 544 nM.

`O=C(Nc1ccc(-n2nc(C(F)(F)F)cc2C(F)(F)F)cc1)c1ccc[nH]1` [Example 166, N-[4-[3,5-bis(trifluoromethyl)-1H-pyrazol-1-yl]phenyl]-1H-pyrrole-2-carboxamide] had a melting point of more than 240 °C. The inhibition at 1 µM in series [1] amounted to 11%.

In turn, `COc1cccc(C(=O)Nc2ccc(-n3nc(C(F)(F)F)cc3C(F)(F)F)cc2)c1` [Example 145, N-[4-[3,5-bis(trifluoromethyl)-1H-pyrazol-1-yl]phenyl]-3-methoxybenzamide] showed a melting point of 169 to 172 °C. Further, in series [1], the inhibition at 100 µM was 94% and the concentration for half-maximal inhibition (IC50) was 1590 nM.

In the case of `O=C(Nc1ccc(F)cc1)c1ccc(-n2nc(C(F)(F)F)cc2C(F)(F)F)cc1` [Example 30, 4-[3,5-bis(trifluoromethyl)-1H-pyrazol-1-yl]-N-(4-fluorophenyl)benzamide], the melting point is 194 to 195 °C. Moreover, the inhibition at 1 µM in series [1] was 6%.

In turn, `CC(=O)c1ccc(NC(=O)Nc2ccc(-n3nc(C(F)(F)F)cc3C(F)(F)F)cc2)cc1` [Example 42, N-(4-acetylphenyl)-N′-[4-[3,5-bis(trifluoromethyl)-1H-pyrazol-1-yl]phenyl]urea] gave a melting point of 230 to 231 °C. Besides, the inhibition at 1 µM in series [1] came to 9%.
